Measured values taken from patent publication US20030226169A1, “DNA sequences encoding antifungal proteins” (priority 1995, published 2003).
Positions of bridges follow the written chain, without caps; N, C: chain ends. Residues, ends and D or L forms follow the SMILES beside them.

Key:
[1] = system: Fusarium culmorum (IMI 180420); experiment: Antifungal growth inhibition microplate assay (photospectrometry); assay type: cell-based; settings: for increase of MIC value: 15-mer peptides, 50 mM KCl versus ½ PDB alone
Method in brief: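 Spores (2×10^4/ml) in half-strength potato dextrose broth exposed to test solution, incubated in the dark at room temperature for about 72 h (96 h for V. dahliae). Growth by OD595 minus 30-min reading; IC50 is 50% and MIC 100% growth inhibition.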

[2] = Solubility of peptide in water; assay type: physicochemical; settings: dissolved at 2 mg/ml
Description: Peptides insoluble in water were dissolved in 50% acetonitrile: 50% acetonitrile was added to the peptide to give a stock solution which could be further diluted with water for fungal growth assays. Fungal growth was not affected by the presence of acetonitrile at the maximum concentration tested ([…] in the test well).
Split 15-mer peptides were dissolved in sterile milli-Q water to a final concentration of 5 mg/ml. MPS 15-mer peptides were dissolved to a final concentration between 4 and 10 mg/ml using acetonitrile as solvent for those peptides insoluble in water. Split 6-, 9- and 12-mer Rs-AFP 1 peptides were dissolved to a final concentration of 2 mg/ml in 20% acetonitrile. Split 6-, 9- and 12-mer Rs-AFP2 peptides were dissolved to a final concentration of 2 mg/ml in sterile water except for peptides numbers 1 (SEQ ID NO: 133) and 83 (SEQ ID NO: 35, amino acids 37-45) which were dissolved in 50% acetonitrile and numbers 3, 4, 5, 25, 47, 52, 64, 69, 70, 73, 74, 77, 85 and 93 which were dissolved in 20% acetonitrile. Both Rs-AFP1 and Rs-AFP2 peptides were freeze-dried just before weighing. […] The foregoing peptides have the following sequence identifications: […]

F culmorum = experiment: Antifungal activity of combinations of Rs-AFP and 15-mer peptides; assay type: cell-based, Fusarium culmorum; settings: 100 x MIC of Rs-AFP2 / MIC of Rs-AFP2/peptide combination; 15-mer peptide added at 20 μg/ml; SMF medium; BSA-coated plates; Rs-AFP2 alone = 100
Description: The 15-mer peptides were tested for their ability to affect the antifungal activity of the Rs-AFP2 protein (SEQ ID NO: 35). Each peptide was added at a subinhibitory concentration (20 μg/ml ) to a twofold dilution series of Rs-AFP2 (SEQ ID NO: 35) ranging from 20 μg/ml down to 0.15 μg/ml. In the control series only water was added.
The target fungus was F culmorum and the growth medium was SMF. In order to exclude the effect of differential binding of the peptides to the microplate wells, the plates were coated with bovine serum albumin. […] The relative specific activity is defined as one hundred times the MIC of Rs-AFP2 divided by the MIC of the Rs-AFP2/peptide combination. Data are based on duplicate tests.

CC(=O)N[C@H]1CSSC[C@@H](C(N)=O)NC(=O)[C@H](CCCCN)NC(=O)[C@H](Cc2c[nH]cn2)NC(=O)[C@H](C)NC(=O)[C@@H]2CCCN2C(=O)[C@H](Cc2ccccc2)NC(=O)[C@H](C(C)C)NC(=O)[C@H](Cc2ccc(O)cc2)NC(=O)[C@H](CC(N)=O)NC1=O [Loop 1, CNYVFPAHKC] (Ac-CNYVFPAHKC-NH2; disulfide 1-10)
ANTIFUNGAL ACTIVITY, MIC ([1]; Table 8: Loop 1 and Rs-AFP2 15-mer peptides, 1/16 PDB): 2.5 µg/mL | ANTIFUNGAL ACTIVITY, IC50 ([1]; Table 9: Loop 1 and Rs-AFP2 15-mer peptides, 1/16 PDB): 4 µg/mL | solubility in water [2]: completely soluble in water

CC[C@H](C)[C@H](NC(=O)[C@H](CS)NC(C)=O)C(=O)N[C@@H](CCCNC(=N)N)C(=O)N[C@@H](CC(C)C)C(=O)N[C@@H](CCC(=O)O)C(=O)N[C@@H](CCCCN)C(=O)N[C@@H](C)C(=O)N[C@@H](CCCNC(=N)N)C(=O)N[C@@H](Cc1c[nH]cn1)C(=O)NCC(=O)N[C@@H](CO)C(=O)N[C@@H](CS)C(=O)N[C@@H](CC(N)=O)C(=O)N[C@@H](Cc1ccc(O)cc1)C(=O)N[C@H](C(N)=O)C(C)C [Peptide 7 (Rs-AFP2 15-mer), CIRLEKARHGSCNYV] (Ac-CIRLEKARHGSCNYV-NH2; N-terminus and C-terminus assumed)
increase of MIC value [1]: twofold | Relative Specific Antifungal Activity (F culmorum): 350

CC[C@H](C)[C@H](NC(=O)[C@H](CS)NC(=O)[C@H](CCCCN)NC(=O)[C@H](Cc1c[nH]cn1)NC(=O)[C@H](C)NC(=O)[C@@H]1CCCN1C(=O)[C@H](Cc1ccccc1)NC(=O)[C@@H](NC(=O)[C@H](Cc1ccc(O)cc1)NC(=O)[C@H](CC(N)=O)NC(C)=O)C(C)C)C(=O)N[C@@H](CS)C(=O)N[C@@H](Cc1ccc(O)cc1)C(=O)N[C@@H](Cc1ccccc1)C(=O)N1CCC[C@H]1C(=O)N[C@@H](CS)C(N)=O [Peptide 10 (Rs-AFP2 15-mer)] (Ac-NYVFPAHKCICYFPC-NH2; N-terminus and C-terminus assumed)
Relative Specific Antifungal Activity (F culmorum): 250

CC(=O)NCC(=O)N[C@H](C(=O)N[C@@H](Cc1c[nH]c2ccccc12)C(=O)N[C@@H](CO)C(=O)NCC(=O)N[C@H](C(=O)N[C@@H](CS)C(=O)NCC(=O)N[C@@H](CC(N)=O)C(=O)N[C@@H](CC(N)=O)C(=O)N[C@@H](CC(N)=O)C(=O)N[C@@H](C)C(=O)N[C@@H](CS)C(=O)N[C@@H](CCCCN)C(=O)N[C@@H](CC(N)=O)C(N)=O)C(C)C)[C@@H](C)O [Peptide 3 (Rs-AFP2 15-mer)] (Ac-GTWSGVCGNNNACKN-NH2; N-terminus and C-terminus assumed)
Relative Specific Antifungal Activity (F culmorum): 180

CC[C@H](C)[C@H](NC(=O)[C@H](CS)NC(=O)[C@H](CCCCN)NC(=O)[C@H](Cc1c[nH]cn1)NC(=O)[C@H](C)NC(=O)[C@@H]1CCCN1C(=O)[C@H](Cc1ccccc1)NC(=O)[C@@H](NC(=O)[C@H](Cc1ccc(O)cc1)NC(=O)[C@H](CC(N)=O)NC(=O)[C@H](CS)NC(=O)[C@H](CO)NC(=O)CNC(=O)[C@H](Cc1c[nH]cn1)NC(C)=O)C(C)C)C(=O)N[C@@H](CS)C(N)=O [Peptide 9 (Rs-AFP2 15-mer), HGSCNYVFPAHKCIC] (Ac-HGSCNYVFPAHKCIC-NH2; N-terminus and C-terminus assumed)
increase of MIC value [1]: ~8 fold | Relative Specific Antifungal Activity (F culmorum): 450

Ac-QRPSGTWSGVCGNNN-NH2 (N-terminus and C-terminus assumed) [Peptide 2 (Rs-AFP2 15-mer)]
Relative Specific Antifungal Activity (F culmorum): 120

CC(=O)N[C@@H](CCC(N)=O)C(=O)N[C@@H](CCCCN)C(=O)N[C@@H](CC(C)C)C(=O)N[C@@H](CS)C(=O)N[C@@H](CCC(N)=O)C(=O)N[C@@H](CCCNC(=N)N)C(=O)N1CCC[C@H]1C(=O)N[C@@H](CO)C(=O)NCC(=O)N[C@H](C(=O)N[C@@H](Cc1c[nH]c2ccccc12)C(=O)N[C@@H](CO)C(=O)NCC(=O)N[C@H](C(=O)N[C@@H](CS)C(N)=O)C(C)C)[C@@H](C)O [Peptide 1 (Rs-AFP2 15-mer)] (Ac-QKLCQRPSGTWSGVC-NH2; N-terminus and C-terminus assumed)
Relative Specific Antifungal Activity (F culmorum): 310

CC[C@H](C)[C@H](NC(=O)[C@H](CS)NC(=O)[C@H](CCC(N)=O)NC(=O)[C@H](CC(N)=O)NC(=O)[C@H](CCCCN)NC(=O)[C@H](CS)NC(=O)[C@H](C)NC(=O)[C@H](CC(N)=O)NC(=O)[C@H](CC(N)=O)NC(=O)[C@H](CC(N)=O)NC(C)=O)C(=O)N[C@@H](CCCNC(=N)N)C(=O)N[C@@H](CC(C)C)C(=O)N[C@@H](CCC(=O)O)C(=O)N[C@@H](CCCCN)C(=O)N[C@@H](C)C(N)=O [Peptide 5 (Rs-AFP2 15-mer)] (Ac-NNNACKNQCIRLEKA-NH2; N-terminus and C-terminus assumed)
Relative Specific Antifungal Activity (F culmorum): 180

CC(=O)N[C@@H](CCC(=O)O)C(=O)N[C@@H](CCCCN)C(=O)N[C@@H](C)C(=O)N[C@@H](CCCNC(=N)N)C(=O)N[C@@H](Cc1c[nH]cn1)C(=O)NCC(=O)N[C@@H](CO)C(=O)N[C@@H](CS)C(=O)N[C@@H](CC(N)=O)C(=O)N[C@@H](Cc1ccc(O)cc1)C(=O)N[C@H](C(=O)N[C@@H](Cc1ccccc1)C(=O)N1CCC[C@H]1C(=O)N[C@@H](C)C(=O)N[C@@H](Cc1c[nH]cn1)C(N)=O)C(C)C [Peptide 8 (Rs-AFP2 15-mer)]
increase of MIC value [1]: about 16 fold | Relative Specific Antifungal Activity (F culmorum): 470

CC[C@H](C)[C@H](NC(=O)[C@H](CS)NC(=O)[C@H](CCC(N)=O)NC(=O)[C@H](CC(N)=O)NC(=O)[C@H](CCCCN)NC(=O)[C@H](CS)NC(C)=O)C(=O)N[C@@H](CCCNC(=N)N)C(=O)N[C@@H](CC(C)C)C(=O)N[C@@H](CCC(=O)O)C(=O)N[C@@H](CCCCN)C(=O)N[C@@H](C)C(=O)N[C@@H](CCCNC(=N)N)C(=O)N[C@@H](Cc1c[nH]cn1)C(=O)NCC(=O)N[C@@H](CO)C(N)=O [Peptide 6 (Rs-AFP2 15-mer), CKNQCIRLEKARHGS] (Ac-CKNQCIRLEKARHGS-NH2; N-terminus and C-terminus assumed)
increase of MIC value [1]: twofold | Relative Specific Antifungal Activity (F culmorum): 300
